Structures are written as SMILES.

Experimental findings from a melting point compilation (Tetko et al.; mined from patent text by program, amines drawn as free bases though some values may be those of a salt) are described below.

By melting point is commonly meant the temperature of the solid-liquid transition. As to `O=C(O)c1cccc(C(=O)CCl)n1`, the melting point is 184 to 189 °C. In the case of `COc1cc(OC)c(-c2cccn2C)cc1C=CC(=O)c1ccc(S(=O)(=O)Nc2cc(C)on2)cc1` it was 113 to 115 °C; in that of `C[C@@H]1NC(=O)c2cccc(N)c2NC1=O`, 320 °C.

As for `COc1ccc(-n2c(=O)c(C)nc3cccnc32)cc1`, the melting point lay in the range of 251 to 252 °C. In the case of `CC1(c2ccccc2)Cc2cc(OCCO)c(Cl)c(Cl)c2C1=O` (stereo unspecified) it was 188 to 190 °C. Regarding `CC(=O)NC[C@H]1CN(c2ccc(N3CCC(n4ncnn4)CC3)c(F)c2)C(=O)O1`, the melting point was in the range of 186 to 188 °C.

For the molecule `CCN(CC)c1nc2cc(-c3ccccc3C#N)ccc2[nH]1`, the melting point was in the range of 138 to 142 °C.

The molecule `Cc1[nH]c(C(=O)NCCCN(C)C)c(C)c1-c1nc2ccc(C(=O)c3ccccc3)cc2[nH]1` gave a melting point of 238 to 248 °C. In the case of `O=C(Nc1cccc2c1C(=O)N(CC(=O)N1CCC(CO)CC1)C2=O)c1ccc(Cl)s1` it was 198 °C; in that of `O=C(Cc1ccncc1)Nc1cccc(-c2ccnc3c(C(=O)c4cccs4)cnn23)c1`, 130 to 131 °C. The same measure for `COc1ccc(-c2cc3ccc(Cl)cc3[nH]c2=O)cc1`: 256 to 257 °C. In the case of `C=CCCCCCCCCCOc1ccc(-c2ccc(OCCCCCCCCCCCBr)cc2)cc1` it was 93 to 94 °C; in that of `COC(=O)NCc1c[nH]c(=S)n1[C@H]1CCc2c(F)cc(F)cc2C1`, 220 to 222 °C; in that of `C/C=C/[C@H](O)C[C@]1(C)CCc2c(C)c(OCc3ccccc3)c(C)c(C)c2O1`, 68 to 70 °C. As for `Cn1nc2ccc(S)nn2c1=O`, the melting point is > 280 °C. For the molecule `CCCCNC(=O)Nc1cccc2c1C(=O)c1c-2n[nH]c1-c1ccc(OC)cc1`, the melting point is 252 °C. As for `CCOC(=O)C1=C(COC2CCNCC2)NC(C)=C(C(=O)OC)C1c1ccccc1Cl` (stereo unspecified), the melting point is 175 to 176 °C. The same measure for `COc1c(C=O)c2cc(Cl)c(Cl)cc2n1C1CC(O)C(CO)O1` (stereo unspecified): 186 to 187 °C; for `O=C1CC(Cl)C(=O)N1c1ccccc1` (stereo unspecified): 117 to 118 °C.

Consider `CSC(=S)NN=Cc1c[nH]c(-c2ccccc2)n1`, for which the melting point lay within 166 to 170 °C. Take `CC(=Cc1ccccc1)c1ccc2c(c1)SCCC2(C)C`: the melting point is 67 to 69 °C. In the case of `CCCCC(=O)C(Cc1ccc(C(=O)OC)cc1)c1ccccc1` (stereo unspecified) it was 58 °C; in that of `COC(=O)C(=O)NCCSC(c1ccccc1)c1ccccc1`, 88 to 89 °C; in that of `N#CCCNC(=O)Sc1ccccc1`, 86 to 90 °C. In the case of `C=CCOc1cc(-c2cc(=O)c3c(OCC=C)c(CC=C)c(OCC=C)cc3o2)ccc1OC` it was 107 °C. The same measure for `CC1(C)C(=O)Nc2ccc(NC(=O)c3ccncc3)cc21`: > 300 °C; for `COc1ccc2c(c1)CNN=C2Cc1c(Cl)cncc1Cl`: 181 to 183 °C. For the molecule `CC(=O)NC(=O)C(Cl)C(C)=O` (stereo unspecified), the melting point was in the range of 54 to 58 °C.

In turn, `C=Cc1c(OC)nc(-c2ccc(Cl)c(OC)c2F)nc1C(=O)OC` gave a melting point of 107 to 108 °C. Regarding `N=c1ncccn1CCc1ccccc1Br`, the melting point lay in the range of 97 to 98 °C. In the case of `COc1cc(NC(=O)C#Cc2ccc(C(F)(F)F)cc2Cl)ccc1OCCN1CCC(OC)CC1` it was 195 to 197 °C; in that of `CS(=O)(=O)On1nnc2ccc([N+](=O)[O-])cc21`, 115 to 116 °C. In the case of `Cc1nc(C(=O)Nc2cccc(Oc3ccc4nc(NC(=O)C5CC5)cn4n3)c2)c(C)o1` it was 224 °C; in that of `CCCc1ccc(C(O)(c2c(C)cc(C)c(C)c2OC)C(C)C)cc1` (stereo unspecified), 59 to 60 °C. In the case of `N#Cc1ccccc1Cn1ccc(OCc2ccc(F)cc2F)c(Br)c1=O`, the melting point fell in the range of 194 to 197 °C. In the case of `NS(=O)(=O)c1ccc(C2=C(c3ccc(F)c(Cl)c3)CCC2)cc1` it was 150 to 152 °C.
